Assay results taken from patent publication US20110092582A1, “New Terpenes And Macrocycles” (MERCK PATENT GESELLSCHAFT, priority 2008, published 2011).

Biological target: T1, human TGR5 (Homo sapiens, UniProt Q8TDU6)
T1 construct: expressed in transfected cells; host or cells: BHK cells
T1 sequence (Q8TDU6 1-330): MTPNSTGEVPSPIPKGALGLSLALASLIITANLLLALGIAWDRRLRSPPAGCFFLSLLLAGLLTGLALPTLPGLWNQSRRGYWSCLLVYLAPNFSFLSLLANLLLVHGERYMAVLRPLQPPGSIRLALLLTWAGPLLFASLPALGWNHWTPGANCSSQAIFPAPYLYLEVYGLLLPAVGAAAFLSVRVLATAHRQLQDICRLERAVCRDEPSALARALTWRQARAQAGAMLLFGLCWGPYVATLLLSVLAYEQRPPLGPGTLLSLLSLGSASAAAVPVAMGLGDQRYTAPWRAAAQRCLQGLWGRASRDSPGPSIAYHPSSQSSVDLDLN
Assay: cAMP production in BHK cells expressing the human TGR5 (CisBio cAMP kit), normalized to LCA = 100%
Assay type: cell-based
Conditions: BHK cells expressing human TGR5, 30 minutes incubation
Protocol: The activity of the natural products, with respect to their TGR5 activating capacities, was analyzed as follows:
BHK cells, expressing the human TGR5, were seeded into 384-well plates and grown overnight. The next day, natural test compounds (and LCA as positive control) were incubated on the cells for 30 minutes. As TGR5 couples to […] proteins, the increase of cellular cAMP production, as a measure for TGR5 activity, was analyzed by using a commercially available cAMP kit (CisBio international). The cAMP production was measured according to the kit manufacturer's protocol. Data were normalized by setting the cAMP production induced by LCA to 100% activity. EC50 values were determined by using the GraphPad PrismSoftware (Graph. Pad Software Inc.).

EC50 [nM]	EC50 (unit inferred) [nM]	SMILES
3000		C=CC1C(CO)=CCC2C1CCC1C(C)(C)C(=O)CCC21C (centres unmarked) [A1, 17-hydroxy-12,15-cleistanthadiene-3-one]
	400	CCC(C)C1OC(=O)C(Cc2ccccc2)NC(=O)C(C)C/C(C)=C/C(C)C(O)/C(C)=C/C1C (centres unmarked) [A4, (8E,12E)-3-benzyl-15-sec-butyl-11-hydroxy-6,8,10,12,14-pentamethyl-1-oxa-4-azacyclopentadeca-8,12-diene-2,5-dione]
